Source: patent US10131652B2, “Pyrimidinyloxy benzene derivatives as herbicides” (E. I. DU PONT DE NEMOURS AND COMPANY, priority 2014, dated 2018)

How the values were obtained:
Assay in all cases: Test D pre-/postemergence plant response
Type in all cases: in vivo
[1] = test system: barnyardgrass (Echinochloa crus-galli)
Procedure, shortened: (§1)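 Greenhouse herbicidal response, both pre- and postemergence applications, with solvent/surfactant formulation. Postemergence plants were at 1- to 4-leaf stage. Visual scores 0–100 relative to controls, taken 13 to 15 days later.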

[2] = test system: oilseed rape (Brassica napus)
Procedure, shortened: as §1

[3] = test system: giant foxtail (Setaria faberii)
Procedure, shortened: as §1

[4] = test system: pigweed (Amaranthus retroflexus)
Procedure, shortened: as §1

[5] = test system: large (Lg) crabgrass (Digitaria sanguinalis)
Procedure, shortened: as §1

[6] = test system: yellow nutsedge (Cyperus esculentus)
Procedure, shortened: as §1

[7] = test system: morningglory (Ipomoea coccinea)
Procedure, shortened: as §1

[8] = test system: lambsquarters (Chenopodium album)
Procedure, shortened: as §1

soybean (Glycine max) = test system: soybean (Glycine max)
Procedure, shortened: as §1

[9] = test system: winter wheat (Triticum aestivum)
Procedure, shortened: as §1

[10] = test system: johnsongrass (Sorghum halepense)
Procedure, shortened: as §1

[11] = test system: blackgrass (Alopecurus myosuroides)
Procedure, shortened: as §1

[12] = test system: waterhemp (common waterhemp, Amaranthus rudis)
Procedure, shortened: as §1

[13] = test system: velvetleaf (Abutilon theophrasti)
Procedure, shortened: as §1

[14] = test system: Italian ryegrass (Lolium multiflorum)
Procedure, shortened: as §1

corn (Zea mays) = test system: corn (Zea mays)
Procedure, shortened: as §1

[15] = test system: ragweed (common ragweed, Ambrosia elatior)
Procedure, shortened: as §1

[16] = test system: galium (catchweed bedstraw, Galium aparine)
Procedure, shortened: as §1

[17] = Postemergence, 16 g ai/ha, scale 0 to 100 (0 no effect, 100 complete control)
[18] = Postemergence, 31 g ai/ha, scale 0 to 100 (0 no effect, 100 complete control)
[19] = Postemergence, 62 g ai/ha, scale 0 to 100, 0 no effect, 100 complete control
[20] = Postemergence, 125 g ai/ha, scale 0 to 100, 0 no effect, 100 complete control
[21] = Preemergence, 16 g ai/ha, scale 0 to 100 (0 no effect, 100 complete control)
[22] = Preemergence, 31 g ai/ha, scale 0 to 100 (0 no effect, 100 complete control)
[23] = Preemergence, 62 g ai/ha, scale 0 to 100 (0 no effect, 100 complete control)

Cc1cc(-c2ccccc2Oc2ncc(Cl)cn2)no1 [Compound 60]
Barnyardgrass plant response rating [1, 17]: 0 | Barnyardgrass plant response rating [1, 18]: 0 | Plant response rating, Barnyardgrass [1, 19]: 10 | Plant response rating, Barnyardgrass [1, 20]: 10 | Plant response rating (scale 0 to 100), Barnyardgrass ([1]; Preemergence, 62 g ai/ha): 30 | Plant response rating (scale 0 to 100), Barnyardgrass ([1]; Preemergence, 125 g ai/ha): 75 | Plant response rating, Barnyardgrass [1, 21]: 0 | Plant response rating, Barnyardgrass [1, 22]: 5 | Oilseed Rape plant response rating [2, 17]: 60 | Oilseed Rape plant response rating [2, 18]: 50 | Plant response rating, Oilseed Rape [2, 19]: 65 | Plant response rating, Oilseed Rape [2, 20]: 90 | Plant response rating (scale 0 to 100), Oilseed Rape ([2]; Preemergence, 125 g ai/ha): 100 | Plant response rating, Oilseed Rape [2, 21]: 80 | Plant response rating, Oilseed Rape [2, 22]: 98 | Plant response rating, Oilseed Rape [2, 23]: 90 | Foxtail, Giant plant response rating [3, 17]: 0 | Foxtail, Giant plant response rating [3, 18]: 5 | Plant response rating, Foxtail, Giant [3, 19]: 5 | Plant response rating, Foxtail, Giant [3, 20]: 10 | Plant response rating (scale 0 to 100), Foxtail, Giant ([3]; Preemergence, 125 g ai/ha): 95 | Plant response rating, Foxtail, Giant [3, 21]: 0 | Plant response rating, Foxtail, Giant [3, 22]: 5 | Plant response rating, Foxtail, Giant [3, 23]: 40 | Pigweed plant response rating [4, 17]: 20 | Pigweed plant response rating [4, 18]: 35 | Plant response rating, Pigweed [4, 19]: 55 | Plant response rating, Pigweed [4, 20]: 70 | Plant response rating (scale 0 to 100), Pigweed ([4]; Preemergence, 125 g ai/ha): 100 | Plant response rating, Pigweed [4, 21]: 75 | Plant response rating, Pigweed [4, 22]: 100 | Plant response rating, Pigweed [4, 23]: 100 | Crabgrass, Large plant response rating [5, 17]: 5 | Crabgrass, Large plant response rating [5, 18]: 5 | Plant response rating, Crabgrass, Large [5, 19]: 5 | Plant response rating, Crabgrass, Large [5, 20]: 5 | Plant response rating (scale 0 to 100), Crabgrass, Large ([5]; Preemergence, 125 g ai/ha): 100 | Plant response rating, Crabgrass, Large [5, 21]: 5 | Plant response rating, Crabgrass, Large [5, 22]: 55 | Plant response rating, Crabgrass, Large [5, 23]: 100 | Nutsedge, Yellow plant response rating [6, 17]: 0 | Nutsedge, Yellow plant response rating [6, 18]: 0 | Plant response rating, Nutsedge, Yellow [6, 19]: 0 | Plant response rating, Nutsedge, Yellow [6, 20]: 5 | Plant response rating (scale 0 to 100), Nutsedge, Yellow ([6]; Preemergence, 125 g ai/ha): 5 | Plant response rating, Nutsedge, Yellow [6, 21]: 0 | Plant response rating, Nutsedge, Yellow [6, 22]: 0 | Plant response rating, Nutsedge, Yellow [6, 23]: 0 | Morningglory plant response rating [7, 17]: 0 | Morningglory plant response rating [7, 18]: 40 | Plant response rating, Morningglory [7, 19]: 25 | Plant response rating, Morningglory [7, 20]: 40 | Plant response rating (scale 0 to 100), Morningglory ([7]; Preemergence, 125 g ai/ha): 20 | Plant response rating, Morningglory [7, 21]: 0 | Plant response rating, Morningglory [7, 22]: 0 | Plant response rating, Morningglory [7, 23]: 10 | Lambsquarters plant response rating [8, 17]: 20 | Lambsquarters plant response rating [8, 18]: 20 | Plant response rating, Lambsquarters [8, 19]: 55 | Plant response rating, Lambsquarters [8, 20]: 75 | Plant response rating (scale 0 to 100), Lambsquarters ([8]; Preemergence, 125 g ai/ha): 100 | Plant response rating, Lambsquarters [8, 21]: 10 | Plant response rating, Lambsquarters [8, 22]: 80 | Plant response rating, Lambsquarters [8, 23]: 85 | Soybean plant response rating (soybean (Glycine max); [17]): 65 | Soybean plant response rating (soybean (Glycine max); [18]): 65 | Plant response rating, Soybean (soybean (Glycine max); [19]): 95 | Plant response rating, Soybean (soybean (Glycine max); [20]): 95 | Plant response rating (scale 0 to 100), Soybean (soybean (Glycine max); Preemergence, 125 g ai/ha): 95 | Plant response rating, Soybean (soybean (Glycine max); [21]): 35 | Plant response rating, Soybean (soybean (Glycine max); [22]): 55 | Plant response rating, Soybean (soybean (Glycine max); [23]): 65 | Wheat plant response rating [9, 17]: 0 | Wheat plant response rating [9, 18]: 5 | Plant response rating, Wheat [9, 19]: 5 | Plant response rating, Wheat [9, 20]: 20 | Plant response rating (scale 0 to 100), Wheat ([9]; Preemergence, 125 g ai/ha): 0 | Plant response rating, Wheat [9, 21]: 0 | Plant response rating, Wheat [9, 22]: 0 | Plant response rating, Wheat [9, 23]: 0 | Johnsongrass plant response rating [10, 17]: 0 | Johnsongrass plant response rating [10, 18]: 0 | Plant response rating, Johnsongrass [10, 19]: 0 | Plant response rating, Johnsongrass [10, 20]: 5 | Plant response rating (scale 0 to 100), Johnsongrass ([10]; Preemergence, 125 g ai/ha): 45 | Plant response rating, Johnsongrass [10, 21]: 0 | Plant response rating, Johnsongrass [10, 22]: 0 | Plant response rating, Johnsongrass [10, 23]: 15 | Blackgrass plant response rating [11, 17]: 0 | Blackgrass plant response rating [11, 18]: 0 | Plant response rating, Blackgrass [11, 19]: 5 | Plant response rating, Blackgrass [11, 20]: 20 | Plant response rating (scale 0 to 100), Blackgrass ([11]; Preemergence, 125 g ai/ha): 70 | Plant response rating, Blackgrass [11, 21]: 0 | Plant response rating, Blackgrass [11, 22]: 5 | Plant response rating, Blackgrass [11, 23]: 10 | Waterhemp plant response rating [12, 17]: 15 | Waterhemp plant response rating [12, 18]: 30 | Plant response rating, Waterhemp [12, 19]: 50 | Plant response rating, Waterhemp [12, 20]: 70 | Plant response rating (scale 0 to 100), Waterhemp ([12]; Preemergence, 125 g ai/ha): 100 | Plant response rating, Waterhemp [12, 21]: 80 | Plant response rating, Waterhemp [12, 22]: 100 | Plant response rating, Waterhemp [12, 23]: 100 | Velvetleaf plant response rating [13, 17]: 40 | Velvetleaf plant response rating [13, 18]: 50 | Plant response rating, Velvetleaf [13, 19]: 65 | Plant response rating, Velvetleaf [13, 20]: 80 | Plant response rating (scale 0 to 100), Velvetleaf ([13]; Preemergence, 125 g ai/ha): 100 | Plant response rating, Velvetleaf [13, 21]: 60 | Plant response rating, Velvetleaf [13, 22]: 100 | Plant response rating, Velvetleaf [13, 23]: 100 | Ryegrass, Italian plant response rating [14, 17]: 0 | Ryegrass, Italian plant response rating [14, 18]: 0 | Plant response rating, Ryegrass, Italian [14, 19]: 0 | Plant response rating, Ryegrass, Italian [14, 20]: 0 | Plant response rating (scale 0 to 100), Ryegrass, Italian ([14]; Preemergence, 125 g ai/ha): 30 | Plant response rating, Ryegrass, Italian [14, 21]: 0 | Plant response rating, Ryegrass, Italian [14, 22]: 0 | Plant response rating, Ryegrass, Italian [14, 23]: 0 | Corn plant response rating (corn (Zea mays); [17]): 0 | Corn plant response rating (corn (Zea mays); [18]): 0 | Plant response rating, Corn (corn (Zea mays); [19]): 5 | Plant response rating, Corn (corn (Zea mays); [20]): 5 | Plant response rating (scale 0 to 100), Corn (corn (Zea mays); Preemergence, 125 g ai/ha): 5 | Plant response rating, Corn (corn (Zea mays); [21]): 5 | Plant response rating, Corn (corn (Zea mays); [22]): 0 | Plant response rating, Corn (corn (Zea mays); [23]): 0 | Ragweed plant response rating [15, 17]: 15 | Ragweed plant response rating [15, 18]: 30 | Plant response rating, Ragweed [15, 19]: 40 | Plant response rating, Ragweed [15, 20]: 70 | Plant response rating (scale 0 to 100), Ragweed ([15]; Preemergence, 125 g ai/ha): 90 | Plant response rating, Ragweed [15, 21]: 15 | Plant response rating, Ragweed [15, 22]: 55 | Plant response rating, Ragweed [15, 23]: 65 | Galium plant response rating [16, 17]: 30 | Galium plant response rating [16, 18]: 40 | Plant response rating, Galium [16, 19]: 50 | Plant response rating, Galium [16, 20]: 65 | Plant response rating (scale 0 to 100), Galium ([16]; Preemergence, 125 g ai/ha): 98 | Plant response rating, Galium [16, 21]: 98 | Plant response rating, Galium [16, 22]: 85 | Plant response rating, Galium [16, 23]: 100
